Laboratory results as given in PubChem BioAssay (NCI).
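96-well plates; 48 h exposure; 5 concentrations. Endpoints by linear interpolation between flanking doses. Not reached: highest tested concentration assigned. GI50 is the concentration that inhibits growth by half. The concentration for full growth arrest is given as TGI.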

Columns and labels:
Assay in all cases: NCI tumour cell line growth inhibition, 48 h
MOLT-4 leukemia = test system: MOLT-4 leukemia
ACHN renal = test system: ACHN renal
HCT-15 colon = test system: HCT-15 colon
SN12C renal = test system: SN12C renal
RXF 393 renal = test system: RXF 393 renal
HCT-116 colon = test system: HCT-116 colon
RPMI-8226 leukemia = test system: RPMI-8226 leukemia
SNB-19 CNS = test system: SNB-19 CNS
LOX IMVI melanoma = test system: LOX IMVI melanoma
NCI-H460 lung = test system: NCI-H460 lung
K-562 leukemia = test system: K-562 leukemia
EKVX NSCLC = test system: EKVX NSCLC
IGROV1 ovarian = test system: IGROV1 ovarian
TK-10 renal = test system: TK-10 renal
MDA-MB-435 = test system: MDA-MB-435
OVCAR-4 ovarian = test system: OVCAR-4 ovarian
CCRF-CEM leukemia = test system: CCRF-CEM leukemia
SR leukemia = test system: SR leukemia
SK-OV-3 ovarian = test system: SK-OV-3 ovarian
HCC-2998 colon = test system: HCC-2998 colon
NCI-H226 lung = test system: NCI-H226 lung
786-0 renal = test system: 786-0 renal
BT-549 breast = test system: BT-549 breast
MCF7 breast = test system: MCF7 breast
UACC-62 melanoma = test system: UACC-62 melanoma
SF-295 CNS = test system: SF-295 CNS
A498 renal = test system: A498 renal
MALME-3M melanoma = test system: MALME-3M melanoma

## c1n[nH]cc1-c1nc2ccc3[nH]ncc3c2c2c1CCCC2
MOLT-4 leukemia
  GI50: 1.99 µM
  TGI: 7.88 µM
ACHN renal
  GI50: 0.56 µM
  TGI: 10.3 µM
HCT-15 colon
  GI50: 1.38 µM
  TGI: 14 µM
SN12C renal
  GI50: 1.84 µM
  TGI: 7.54 µM
RXF 393 renal
  GI50: 1.17 µM
  TGI: 2.77 µM
HCT-116 colon
  GI50: 0.635 µM
  TGI: 7.92 µM
RPMI-8226 leukemia
  GI50: 1.51 µM
  TGI: 4.94 µM
SNB-19 CNS
  GI50: 2.78 µM
  TGI: 9.85 µM
LOX IMVI melanoma
  GI50: 1.15 µM
  TGI: 2.91 µM
NCI-H460 lung
  GI50: 0.783 µM
  TGI: 4.85 µM
K-562 leukemia
  GI50: 3.01 µM
  TGI: > 100 µM
EKVX NSCLC
  GI50: 0.887 µM
  TGI: 3.33 µM
IGROV1 ovarian
  GI50: 1.35 µM
  TGI: 8.15 µM
TK-10 renal
  GI50: 0.766 µM
  TGI: 8.2 µM
MDA-MB-435
  GI50: 1.4 µM
  TGI: 4.38 µM
OVCAR-4 ovarian
  GI50: 2.35 µM
  TGI: 7.93 µM
CCRF-CEM leukemia
  GI50: 2.42 µM
  TGI: > 100 µM
SR leukemia
  GI50: 0.287 µM
  TGI: 5.45 µM
SK-OV-3 ovarian
  GI50: 0.68 µM
  TGI: 11.6 µM
HCC-2998 colon
  GI50: 1.64 µM
  TGI: 7.31 µM
NCI-H226 lung
  GI50: 1.28 µM
  TGI: 3.65 µM
786-0 renal
  GI50: 1.41 µM
  TGI: 2.72 µM
BT-549 breast
  GI50: 1.22 µM
  TGI: 2.49 µM
MCF7 breast
  GI50: 2.42 µM
  TGI: 11.7 µM
UACC-62 melanoma
  GI50: 1.06 µM
  TGI: 3.25 µM
SF-295 CNS
  GI50: 2.11 µM
  TGI: 8.49 µM
A498 renal
  GI50: 0.405 µM
  TGI: 1.92 µM
MALME-3M melanoma
  GI50: 1.56 µM
  TGI: 4.76 µM
